Measurements taken from patent publication US20250243196A1, “CITRON KINASE INHIBITORS” (The Cleveland Clinic Foundation, priority 2021, published 2025).

Assays:
Type in all cases: biochemical
ACTR2(h) = ACTR2(h) (Homo sapiens (Human), UniProt P27037); experiment: KinaseProfiler panel; parameters: dose or concentration left out as unconfirmed; conditions: activity remaining
WNK4(h) = WNK4(h) (Homo sapiens (Human), UniProt Q96J92); experiment: KinaseProfiler panel; parameters: dose or concentration left out as unconfirmed; conditions: activity remaining
Arg(h) = Arg(h) (Homo sapiens (Human), UniProt P42684); experiment: KinaseProfiler panel; parameters: dose or concentration left out as unconfirmed; conditions: activity remaining
MAP4K5(h) = MAP4K5(h) (Homo sapiens (Human), UniProt Q9Y4K4); experiment: KinaseProfiler panel; parameters: dose or concentration left out as unconfirmed; conditions: activity remaining
RIPK1(h) = RIPK1(h) (Homo sapiens (Human), UniProt Q13546); experiment: KinaseProfiler panel; parameters: dose or concentration left out as unconfirmed; conditions: activity remaining
SGK(h) = SGK(h) (Homo sapiens (Human), UniProt O00141); experiment: KinaseProfiler panel; parameters: dose or concentration left out as unconfirmed; conditions: activity remaining
MARK4(h) = MARK4(h) (Homo sapiens (Human), UniProt Q96L34); experiment: KinaseProfiler panel; parameters: dose or concentration left out as unconfirmed; conditions: activity remaining
GSK3β(h) = GSK3β(h) (Homo sapiens (Human), UniProt P49841); experiment: KinaseProfiler panel; parameters: dose or concentration left out as unconfirmed; conditions: activity remaining
CK1α(h) = CK1α(h) (Homo sapiens (Human), UniProt P48729); experiment: KinaseProfiler panel; parameters: dose or concentration left out as unconfirmed; conditions: activity remaining
DAPK2(h) = DAPK2(h) (Homo sapiens (Human), UniProt Q9UIK4); experiment: KinaseProfiler panel; conditions: activity remaining
PKR(h) = PKR(h) (Homo sapiens (Human), UniProt P19525); experiment: KinaseProfiler panel; parameters: dose or concentration left out as unconfirmed; conditions: activity remaining
SNRK(h) = SNRK(h) (Homo sapiens (Human), UniProt Q9NRH2); experiment: KinaseProfiler panel; parameters: dose or concentration left out as unconfirmed; conditions: activity remaining
PKD3(h) = PKD3(h) (Homo sapiens (Human), UniProt O94806); experiment: KinaseProfiler panel; parameters: dose or concentration left out as unconfirmed; conditions: activity remaining
DYRK2(h) = DYRK2(h) (Homo sapiens (Human), UniProt Q92630); experiment: KinaseProfiler panel; parameters: dose or concentration left out as unconfirmed; conditions: activity remaining
CDKL1(h) = CDKL1(h) (Homo sapiens (Human), UniProt Q00532); experiment: KinaseProfiler panel; parameters: dose or concentration left out as unconfirmed; conditions: activity remaining
PrKX(h) = PrKX(h) (Homo sapiens (Human), UniProt P51817); experiment: KinaseProfiler panel; parameters: dose or concentration left out as unconfirmed; conditions: activity remaining
TAO3(h) = TAO3(h) (Homo sapiens (Human), UniProt Q9H2K8); experiment: KinaseProfiler panel; parameters: dose or concentration left out as unconfirmed; conditions: activity remaining
PKAα = PKAα (Homo sapiens (Human), UniProt P17612); experiment: KinaseProfiler radiometric assay (14-440KP); conditions: mean of at least two independent experiments
Source text: In another aspect, disclosed is a method of inhibiting citron kinase in a sample, comprising contacting the sample with a compound described herein (e.g., a compound of formula (I) or a pharmaceutically acceptable salt thereof), or a pharmaceutical composition described herein (e.g., a pharmaceutical composition comprising a compound of formula (I) or a pharmaceutically acceptable salt thereof), in an amount effective to inhibit citron kinase. In some embodiments, the step of contacting the sample with the compound comprises administering the compound to a subject (e.g., a subject) suffering from cancer. Methods of determining kinase inhibition are well known in the art. For example, kinase activity of an enzyme and the inhibitory capacity of a test compound can be determined by measuring enzyme specific phosphorylation of a substrate. Commercial assays and kits can be employed. For example, kinase inhibition can be determined using a radiometric binding assay, such as using KinaseProfiler™ technology (Eurofins Discovery). This assay method directly detects product formation without the use of modified substrates or coupling enzymes. Test compounds are incubated with kinase, substrate, required cofactors and radioisotope labeled ATP. Following incubation, unreacted radioactive ATP is removed by washing and incorporation of the radiolabeled phosphate into the kinase substrate is assayed to detect phosphoryltransferase activity, which is directly proportional to the amount of phosphorylated substrate. Inhibition of the kinase by a kinase inhibitor prevents phosphorylation of the substrate and thereby limits the incorporation of radiolabeled phosphate. Such an assay is compatible with a microwell assay format, allowing simultaneous determination of IC50 of multiple compounds.
The effect of various compounds on the inhibition of other kinases has also been determined. Table 2 reports measured IC50 values; value units are nanomolar inhibition.

Rsk3(h) = Rsk3(h) (Homo sapiens (Human), UniProt Q15349); experiment: KinaseProfiler panel; parameters: dose or concentration left out as unconfirmed; conditions: activity remaining
SAPK2a(h) = SAPK2a(h) (Homo sapiens (Human), UniProt Q16539); experiment: KinaseProfiler panel; parameters: dose or concentration left out as unconfirmed; conditions: activity remaining
MLCK(h) = MLCK(h) (Homo sapiens (Human), UniProt Q15746); experiment: KinaseProfiler panel; parameters: dose or concentration left out as unconfirmed; conditions: activity remaining
TBK1(h) = TBK1(h) (Homo sapiens (Human), UniProt Q9UHD2); experiment: KinaseProfiler panel; conditions: activity remaining
PKBα(h) = PKBα(h) (Homo sapiens (Human), UniProt P31749); experiment: KinaseProfiler panel; parameters: dose or concentration left out as unconfirmed; conditions: activity remaining
[1] = biological target: PI3 Kinase (p110d/p85a)(h) (Homo sapiens (Human), UniProt O00329); experiment: KinaseProfiler panel; parameters: dose or concentration left out as unconfirmed; conditions: activity remaining
DYRK3(h) = DYRK3(h) (Homo sapiens (Human), UniProt O43781); experiment: KinaseProfiler panel; parameters: dose or concentration left out as unconfirmed; conditions: activity remaining
B-Raf(h) = B-Raf(h) (Homo sapiens (Human), UniProt P15056); experiment: KinaseProfiler panel; parameters: dose or concentration left out as unconfirmed; conditions: activity remaining

DYRK2(h), sequence (Q92630 whole entry): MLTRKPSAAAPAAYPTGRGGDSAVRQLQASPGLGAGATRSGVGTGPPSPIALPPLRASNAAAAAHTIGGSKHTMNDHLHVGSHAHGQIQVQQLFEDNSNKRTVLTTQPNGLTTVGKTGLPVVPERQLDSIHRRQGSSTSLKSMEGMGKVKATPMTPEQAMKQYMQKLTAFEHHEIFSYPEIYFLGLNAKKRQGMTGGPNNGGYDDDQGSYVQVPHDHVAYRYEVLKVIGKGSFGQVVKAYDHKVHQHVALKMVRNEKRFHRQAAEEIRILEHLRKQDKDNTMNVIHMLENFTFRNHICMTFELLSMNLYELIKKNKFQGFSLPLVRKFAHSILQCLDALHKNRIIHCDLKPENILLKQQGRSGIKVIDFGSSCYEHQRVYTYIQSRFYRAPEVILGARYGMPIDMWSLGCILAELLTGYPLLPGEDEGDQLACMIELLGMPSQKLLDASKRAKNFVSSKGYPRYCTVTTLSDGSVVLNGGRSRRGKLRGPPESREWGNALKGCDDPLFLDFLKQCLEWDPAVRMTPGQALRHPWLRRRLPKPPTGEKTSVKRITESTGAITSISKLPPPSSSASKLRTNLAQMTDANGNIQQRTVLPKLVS
PKR(h), sequence (P19525 whole entry): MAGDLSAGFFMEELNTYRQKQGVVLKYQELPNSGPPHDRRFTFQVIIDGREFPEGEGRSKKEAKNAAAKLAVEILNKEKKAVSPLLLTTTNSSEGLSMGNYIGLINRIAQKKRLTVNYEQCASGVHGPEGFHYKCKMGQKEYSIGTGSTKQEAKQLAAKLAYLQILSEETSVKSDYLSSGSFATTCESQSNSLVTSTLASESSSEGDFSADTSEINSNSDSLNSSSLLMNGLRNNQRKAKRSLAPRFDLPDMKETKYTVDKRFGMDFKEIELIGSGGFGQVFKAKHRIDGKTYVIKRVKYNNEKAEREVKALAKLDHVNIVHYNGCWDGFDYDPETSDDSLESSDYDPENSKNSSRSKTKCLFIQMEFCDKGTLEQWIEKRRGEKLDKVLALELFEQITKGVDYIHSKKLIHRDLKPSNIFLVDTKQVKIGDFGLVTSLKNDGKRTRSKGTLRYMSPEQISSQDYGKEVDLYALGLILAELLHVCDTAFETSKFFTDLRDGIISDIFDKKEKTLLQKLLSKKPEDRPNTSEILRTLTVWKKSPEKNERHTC
MAP4K5(h), sequence (Q9Y4K4 whole entry): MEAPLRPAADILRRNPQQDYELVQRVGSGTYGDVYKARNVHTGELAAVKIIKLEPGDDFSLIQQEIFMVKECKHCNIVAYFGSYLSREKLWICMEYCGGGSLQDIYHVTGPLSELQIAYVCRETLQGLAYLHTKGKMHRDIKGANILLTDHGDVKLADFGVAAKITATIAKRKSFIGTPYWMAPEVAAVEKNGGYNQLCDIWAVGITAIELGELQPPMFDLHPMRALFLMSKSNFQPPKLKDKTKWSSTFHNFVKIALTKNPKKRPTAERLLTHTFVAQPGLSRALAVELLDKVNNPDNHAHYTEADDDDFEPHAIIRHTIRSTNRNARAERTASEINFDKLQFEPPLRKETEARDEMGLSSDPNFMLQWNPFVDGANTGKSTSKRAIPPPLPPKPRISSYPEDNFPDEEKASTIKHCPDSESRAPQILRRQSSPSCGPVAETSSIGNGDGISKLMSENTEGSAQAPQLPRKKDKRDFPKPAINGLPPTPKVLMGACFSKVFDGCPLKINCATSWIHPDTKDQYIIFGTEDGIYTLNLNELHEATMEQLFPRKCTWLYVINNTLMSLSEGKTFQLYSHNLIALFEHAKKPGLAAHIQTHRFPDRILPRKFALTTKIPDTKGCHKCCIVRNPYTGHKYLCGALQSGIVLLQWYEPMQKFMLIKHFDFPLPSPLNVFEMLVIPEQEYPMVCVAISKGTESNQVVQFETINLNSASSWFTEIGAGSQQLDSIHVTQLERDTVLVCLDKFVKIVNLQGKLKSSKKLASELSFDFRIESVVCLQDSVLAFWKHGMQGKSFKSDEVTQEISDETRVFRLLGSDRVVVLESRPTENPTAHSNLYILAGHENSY
WNK4(h), sequence (Q96J92 whole entry): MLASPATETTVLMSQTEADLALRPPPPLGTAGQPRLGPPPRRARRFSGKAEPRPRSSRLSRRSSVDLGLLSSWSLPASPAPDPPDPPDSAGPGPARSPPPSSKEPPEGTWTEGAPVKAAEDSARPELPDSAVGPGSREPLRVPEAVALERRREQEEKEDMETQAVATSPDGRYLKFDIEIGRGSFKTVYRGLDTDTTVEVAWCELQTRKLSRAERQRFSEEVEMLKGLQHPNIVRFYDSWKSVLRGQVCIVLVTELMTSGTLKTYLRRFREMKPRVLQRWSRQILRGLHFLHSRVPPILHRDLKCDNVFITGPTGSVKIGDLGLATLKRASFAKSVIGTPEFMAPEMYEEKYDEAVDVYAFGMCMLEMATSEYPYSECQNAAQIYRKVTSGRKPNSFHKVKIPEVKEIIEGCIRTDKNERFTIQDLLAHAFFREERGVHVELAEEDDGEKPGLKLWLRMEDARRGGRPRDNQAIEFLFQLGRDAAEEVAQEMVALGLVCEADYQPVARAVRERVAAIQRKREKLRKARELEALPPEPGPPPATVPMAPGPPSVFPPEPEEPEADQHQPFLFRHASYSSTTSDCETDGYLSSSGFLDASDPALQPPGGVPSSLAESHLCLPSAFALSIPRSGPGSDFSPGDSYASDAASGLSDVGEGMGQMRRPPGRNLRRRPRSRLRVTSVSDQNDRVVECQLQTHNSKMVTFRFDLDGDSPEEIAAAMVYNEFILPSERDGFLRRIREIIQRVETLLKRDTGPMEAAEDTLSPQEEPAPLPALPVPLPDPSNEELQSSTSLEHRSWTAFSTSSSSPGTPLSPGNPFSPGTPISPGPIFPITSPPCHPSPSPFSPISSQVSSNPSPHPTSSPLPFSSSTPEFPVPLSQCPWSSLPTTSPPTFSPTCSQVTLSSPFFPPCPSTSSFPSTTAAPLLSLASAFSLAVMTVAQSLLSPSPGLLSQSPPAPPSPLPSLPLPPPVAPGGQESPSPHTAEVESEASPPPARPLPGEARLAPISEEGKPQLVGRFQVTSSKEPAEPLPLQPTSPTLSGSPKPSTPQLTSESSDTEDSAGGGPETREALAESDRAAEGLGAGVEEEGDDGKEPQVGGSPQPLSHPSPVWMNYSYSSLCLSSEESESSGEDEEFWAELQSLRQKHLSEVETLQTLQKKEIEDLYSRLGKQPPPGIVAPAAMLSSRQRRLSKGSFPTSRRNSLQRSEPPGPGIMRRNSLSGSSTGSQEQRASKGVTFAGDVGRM
DAPK2(h), sequence (Q9UIK4 whole entry): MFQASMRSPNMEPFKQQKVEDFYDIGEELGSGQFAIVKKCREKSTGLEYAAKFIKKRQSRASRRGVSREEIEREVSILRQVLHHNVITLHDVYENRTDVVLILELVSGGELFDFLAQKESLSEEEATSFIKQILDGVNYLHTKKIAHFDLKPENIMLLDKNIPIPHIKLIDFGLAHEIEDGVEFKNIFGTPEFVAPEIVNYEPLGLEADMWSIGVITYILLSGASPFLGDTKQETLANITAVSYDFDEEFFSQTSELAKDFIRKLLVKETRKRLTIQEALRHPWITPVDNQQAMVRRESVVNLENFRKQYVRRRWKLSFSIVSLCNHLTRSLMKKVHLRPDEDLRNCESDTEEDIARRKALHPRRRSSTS
Arg(h), sequence (P42684 whole entry): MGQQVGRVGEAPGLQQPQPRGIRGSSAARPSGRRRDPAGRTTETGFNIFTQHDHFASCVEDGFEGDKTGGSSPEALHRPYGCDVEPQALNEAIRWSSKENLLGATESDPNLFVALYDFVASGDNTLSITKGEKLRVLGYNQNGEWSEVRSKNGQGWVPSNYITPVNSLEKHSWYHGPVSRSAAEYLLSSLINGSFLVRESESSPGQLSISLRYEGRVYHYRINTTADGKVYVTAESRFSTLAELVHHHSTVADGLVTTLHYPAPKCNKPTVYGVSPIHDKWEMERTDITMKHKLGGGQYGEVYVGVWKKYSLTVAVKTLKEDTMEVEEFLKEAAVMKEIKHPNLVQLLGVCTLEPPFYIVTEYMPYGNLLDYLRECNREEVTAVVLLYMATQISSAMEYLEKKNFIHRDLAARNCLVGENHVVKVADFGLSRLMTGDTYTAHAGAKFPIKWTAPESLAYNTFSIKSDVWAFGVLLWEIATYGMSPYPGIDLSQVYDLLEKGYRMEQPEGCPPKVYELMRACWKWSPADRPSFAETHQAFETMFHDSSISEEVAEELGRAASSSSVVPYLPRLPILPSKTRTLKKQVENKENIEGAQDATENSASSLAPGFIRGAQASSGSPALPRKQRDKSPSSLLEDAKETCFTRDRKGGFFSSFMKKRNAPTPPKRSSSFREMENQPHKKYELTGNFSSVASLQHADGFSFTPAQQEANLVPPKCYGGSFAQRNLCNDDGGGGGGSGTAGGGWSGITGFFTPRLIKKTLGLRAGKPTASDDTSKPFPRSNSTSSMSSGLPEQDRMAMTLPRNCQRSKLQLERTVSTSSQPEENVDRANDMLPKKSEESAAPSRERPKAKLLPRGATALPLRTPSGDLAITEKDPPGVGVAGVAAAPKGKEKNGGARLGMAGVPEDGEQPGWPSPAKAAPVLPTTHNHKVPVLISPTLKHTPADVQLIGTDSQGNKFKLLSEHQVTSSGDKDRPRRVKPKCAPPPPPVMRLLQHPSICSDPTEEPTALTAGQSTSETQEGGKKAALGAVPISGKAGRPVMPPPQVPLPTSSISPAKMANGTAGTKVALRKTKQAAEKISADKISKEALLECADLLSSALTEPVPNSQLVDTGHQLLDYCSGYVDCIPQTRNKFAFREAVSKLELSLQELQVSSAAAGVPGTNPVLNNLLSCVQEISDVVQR

`Cc1cc2c(-c3ccc(NC(=O)[C@H](N)CC(C)(C)C)cc3C)ccnc2[nH]1` [Compound F-90, (2R)-2-Amino-4,4-dimethyl-N-[3-methyl-4-(2-methyl-1H-pyrrolo[2,3-b]pyridin-4-yl)phenyl]pentanamide] was tested, and the “% Activity” value (ACTR2(h)) was 96%, the “% Activity” value (WNK4(h)) was 97% and the “% Activity” value (Arg(h)) was 72%. For the same molecule, the “% Activity” value (MAP4K5(h)) was 92%, the “% Activity” value (RIPK1(h)) was 84% and the “% Activity” value (SGK(h)) was 113%. The “% Activity” value (MARK4(h)) was 92%, the “% Activity” value (GSK3β(h)) was 93% and the “% Activity” value (CK1α(h)) was 97%. For the same molecule, the “% Activity” value (DAPK2(h)) was 109%, the “% Activity” value (PKR(h)) was 85% and the “% Activity” value (SNRK(h)) was 111%. For the same molecule, the “% Activity” value (PKD3(h)) was 97%, the “% Activity” value (DYRK2(h)) was 101% and the “% Activity” value (CDKL1(h)) was 99%. The “% Activity” value (PrKX(h)) was 101%, the “% Activity” value (TAO3(h)) was 100% and the IC50 (PKAα) was over 3 µM. For the same molecule, the “% Activity” value (Rsk3(h)) was 112%, the “% Activity” value (SAPK2a(h)) was 94% and the “% Activity” value (MLCK(h)) was 98%. The “% Activity” value (TBK1(h)) was 100%, the “% Activity” value (PKBα(h)) was 87% and the “% Activity” value [1] was 110%. The “% Activity” value (DYRK3(h)) was 99% and the “% Activity” value (B-Raf(h)) was 110%.
